{"source": "BindingDB's records for doi:10.1021/jm00051a003", "about": "(University of Washington, 1995)"}
{"assay": "Tested for the binding affinity against the Delta opioid receptor in guinea pig brain using [3H]DPDPE", "units": {"IC50": "nM"}}
{"smiles": "Oc1ccc2c3c1OC1[C@@H](OCc4ccc5ccccc5c4)CCC4(O)C(C2)N(CC2CC2)CCC314", "note": "(stereo not given in full)", "IC50": 20}
{"smiles": "Oc1ccc2c3c1OC1[C@H](OCc4ccc5ccccc5c4)CCC4(O)C(C2)N(CC2CC2)CCC314", "note": "(stereo not given in full)", "IC50": 25}
{"smiles": "Oc1ccc2c3c1OC1[C@@H](OCc4cccc5ccccc45)CCC4(O)C(C2)N(CC2CC2)CCC314", "note": "(stereo not given in full)", "IC50": 6.6}
{"smiles": "Oc1ccc2c3c1OC1[C@@H](OCc4ccc(-c5ccccc5)cc4)CCC4(O)C(C2)N(CC2CC2)CCC314", "note": "(stereo not given in full)", "IC50": 19}
{"smiles": "Oc1ccc2c3c1OC1[C@@H](OCc4ccccc4)CCC4(O)C(C2)N(CC2CC2)CCC314", "note": "(stereo not given in full)", "IC50": 1.4}
{"smiles": "Oc1ccc2c3c1OC1[C@H](OCc4cccc5ccccc45)CCC4(O)C(C2)N(CC2CC2)CCC314", "note": "(stereo not given in full)", "IC50": 5.5}
{"smiles": "Oc1ccc2c3c1OC1[C@@H](OCc4c5ccccc5cc5ccccc45)CCC4(O)C(C2)N(CC2CC2)CCC314", "note": "(stereo not given in full)", "IC50": 36}
{"smiles": "Oc1ccc2c3c1OC1[C@H](OCc4ccc(-c5ccccc5)cc4)CCC4(O)C(C2)N(CC2CC2)CCC314", "note": "(stereo not given in full)", "IC50": 11}
{"smiles": "Oc1ccc2c3c1OC1[C@H](OCc4c5ccccc5cc5ccccc45)CCC4(O)C(C2)N(CC2CC2)CCC314", "note": "(stereo not given in full)", "IC50": 48}
{"smiles": "O=C(COC1CCC2(O)C3Cc4ccc(O)c5c4C2(CCN3CC2CC2)C1O5)C1[C@H]2C[C@@H]3C[C@@H](C[C@H]1C3)C2", "note": "(stereo partly drawn) [17-(cyclopropylmethyl)-4,5alpha-epoxy-3,14-dihydroxy-6beta-morphinanyl 2-adamantyl-2-oxoethylether]", "IC50": 30}
